Test results from patent US20230002375A1, “HYDROPYRAZINO[1,2-B]ISOQUINOLINE COMPOUNDS FOR THE TREATMENT OF AUTOIMMUNE DISEASE” (Hoffmann-La Roche Inc., priority 2019, published 2023).

Experiments:
human TLR7 = biological target: T1, human TLR7 (Homo sapiens, UniProt Q9NYK1); assay: HEK293-Blue-hTLR-7 cells assay (SEAP reporter, R848 stimulation); assay type: cell-based; settings: HEK293-Blue-hTLR7 cells, R848, 20 hrs incubation; read-out: HEK/hTLR7 IC50
T1 sequence (Q9NYK1 27-1049): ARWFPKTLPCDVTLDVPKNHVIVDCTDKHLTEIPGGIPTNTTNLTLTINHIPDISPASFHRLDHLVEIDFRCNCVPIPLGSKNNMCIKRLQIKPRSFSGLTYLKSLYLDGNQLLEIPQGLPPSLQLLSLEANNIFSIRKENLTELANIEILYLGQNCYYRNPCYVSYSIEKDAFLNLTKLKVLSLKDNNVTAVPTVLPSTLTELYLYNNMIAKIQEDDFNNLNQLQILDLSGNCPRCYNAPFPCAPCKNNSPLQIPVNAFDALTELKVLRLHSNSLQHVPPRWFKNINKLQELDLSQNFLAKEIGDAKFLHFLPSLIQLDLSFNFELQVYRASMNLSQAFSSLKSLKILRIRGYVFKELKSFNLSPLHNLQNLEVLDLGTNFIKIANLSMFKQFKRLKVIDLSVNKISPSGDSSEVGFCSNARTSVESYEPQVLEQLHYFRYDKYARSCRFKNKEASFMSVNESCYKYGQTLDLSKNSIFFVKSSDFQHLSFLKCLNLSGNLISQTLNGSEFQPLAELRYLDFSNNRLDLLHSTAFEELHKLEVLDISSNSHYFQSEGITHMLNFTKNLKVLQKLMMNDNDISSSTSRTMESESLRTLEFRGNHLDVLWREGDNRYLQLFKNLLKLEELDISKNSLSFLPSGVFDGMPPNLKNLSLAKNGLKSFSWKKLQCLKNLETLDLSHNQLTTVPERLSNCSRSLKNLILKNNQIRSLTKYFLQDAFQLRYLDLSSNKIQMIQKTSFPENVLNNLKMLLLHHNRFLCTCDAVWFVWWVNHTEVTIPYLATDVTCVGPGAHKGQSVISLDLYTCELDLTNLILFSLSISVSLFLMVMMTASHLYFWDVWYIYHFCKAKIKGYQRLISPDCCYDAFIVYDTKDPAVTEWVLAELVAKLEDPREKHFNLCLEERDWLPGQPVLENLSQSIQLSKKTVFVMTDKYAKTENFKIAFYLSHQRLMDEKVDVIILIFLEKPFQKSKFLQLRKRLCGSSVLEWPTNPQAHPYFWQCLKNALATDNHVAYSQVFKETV
Procedure: The following tests were carried out in order to determine the activity of the compounds of formula (I), (Ia) or (Ib) in HEK293-Blue-hTLR-7/8/9 cells assay.
HEK293-Blue-hTLR-7 Cells Assay:
A stable HEK293-Blue-hTLR-7 cell line was purchased from InvivoGen (Cat.#: hkb-htlr7, San Diego, Calif., USA). These cells were originally designed for studying the stimulation of human TLR7 by monitoring the activation of NF-κB. A SEAP (secreted embryonic alkaline phosphatase) reporter gene was placed under the control of the IFN-β minimal promoter fused to five NF-κB and AP-1-binding sites. The SEAP was induced by activating NF-κB and AP-1 via stimulating HEK-Blue hTLR7 cells with TLR7 ligands. Therefore the reporter expression was declined by TLR7 antagonist under the stimulation of a ligand, such as R848 (Resiquimod), for incubation of 20 hrs. The cell culture supernatant SEAP reporter activity was determined using QUANTI-Blue™ kit (Cat.#: rep-qb1, Invivogen, San Diego, Ca, USA) at a wavelength of 640 nm, a detection medium that turns purple or blue in the presence of alkaline phosphatase.
HEK293-Blue-hTLR7 cells were incubated at a density of 250,000˜450,000 cells/mL in a volume of 170 μL in a 96-well plate in Dulbecco's Modified Eagle's medium (DMEM) containing 4.5 g/L glucose, 50 U/mL penicillin, […], […], 2 mM L-glutamine, 10% (v/v) heat-inactivated fetal bovine serum with addition of 20 μL test compound in a serial dilution in the presence of final DMSO at 1% and 10 μL of 20 uM R848 in above DMEM, perform incubation under 37° C. in a CO2 incubator for 20 hrs. Then 20 μL of the supernatant from each well was incubated with 180 μL Quanti-blue substrate solution at 37° C. for 2 hrs and the absorbance was read at 620-655 nm using a spectrophotometer. The signaling pathway that TLR7 activation leads to downstream NF-κB activation has been widely accepted, and therefore similar reporter assay was modified for evaluating TLR7 antagonist.

[1] = Human microsomal stability assay; assay type: in vitro ADME; settings: human liver microsomes, 1 μM test compound, 0.5 mg/mL protein, 37° C.; low <7.0, medium 7.0-16.2, high 16.2-23.2 mL/min/kg
Procedure: Human Microsomal Stability Assay
Human liver microsomes (Cat.NO.: 452117, Corning, USA) were preincubated with test compound for 10 minutes at 37° C. in 100 mM potassium phosphate buffer, pH 7.4. The reactions were initiated by adding NADPH regenerating system. The final incubation mixtures contained 1 μM test compound, 0.5 mg/mL liver microsomal protein, 1 mM MgCl2, 1 mM NADP, 1 unit/mL isocitric dehydrogenase and 6 mM isocitric acid in 100 mM potassium phosphate buffer, pH 7.4. After incubation times of 0, 3, 6, 9, 15 and 30 minutes at 37° C., 300 μL of cold ACN (including internal standard) was added to 100 μL incubation mixture to terminate the reaction. Following precipitation and centrifugation, 100 uL supernatant will be taken out and added 300 uL water. The amount of compound remaining in the samples was determined by LC-MS/MS. Controls of no NADPH regenerating system at zero and 30 minutes were also prepared and analyzed. The results were categorized as: low (<7.0 mL/min/kg), medium (7.0-16.2 mL/min/kg) and high (16.2-23.2 mL/min/kg).

IC50 (human TLR7)	CL(h) [1]	SMILES
27.4 nM	–	CO[C@H]1CNC[C@H]1Nc1ccc2c(c1)C[C@H]1CN(c3ccc(C#N)c4ncccc34)C[C@@H](C)N1C2 [Example 7, 5-[(4R,11aS)-9-[[(3R,4S)-4-methoxypyrrolidin-3-yl]amino]-4-methyl-1,3,4,6,11,11a-hexahydropyrazino[1,2-b]isoquinolin-2-yl]quinoline-8-carbonitrile]
24.7 nM	6.8 mL/min/kg	C[C@@H]1CN(c2ccc(C#N)c3ncccc23)C[C@@H]2Cc3cc(N[C@@H]4CNC[C@@H]4F)ccc3CN21 [Example 6, 5-[(4R,11aS)-4-methyl-9-[[(3R,4S)-4-fluoropyrrolidin-3-yl]amino]-1,3,4,6,11,11a-hexahydropyrazino[1,2-b]isoquinolin-2-yl]quinoline-8-carbonitrile]
21.8 nM	9.3 mL/min/kg	C[C@@H]1CN(c2ccc(C#N)c3ncccc23)C[C@@H]2Cc3cc(N4CC5NCCOC5C4)ccc3CN21 (stereo in doubt) [Example 10, 5-[(4R,11aS)-9-[(4aS,7aS)-3,4,4a,5,7,7a-hexahydro-2H-pyrrolo[3,4-b][1,4]oxazin-6-yl]-4-methyl-1,3,4,6,11,11a-hexahydropyrazino[1,2-b]isoquinolin-2-yl]quinoline-8-carbonitrile]
19.5 nM	8.8 mL/min/kg	CO[C@H]1CN(c2ccc3c(c2)C[C@H]2CN(c4ccc(C#N)c5ncccc45)C[C@@H](C)N2C3)C[C@H]1N [Example 9, 5-[(4R,11aS)-9-[(3R,4S)-3-amino-4-methoxy-pyrrolidin-1-yl]-4-methyl-1,3,4,6,11,11a-hexahydropyrazino[1,2-b]isoquinolin-2-yl]quinoline-8-carbonitrile]
18.6 nM	8.7 mL/min/kg	C[C@@H]1CN(c2ccc(C#N)c3ncccc23)C[C@@H]2Cc3cc(N4CCN(C(=O)[C@]5(C)CCCN5)CC4)ccc3CN21 [Example 14, 5-[(4R,11aS)-4-methyl-9-[4-[(2S)-2-methylpyrrolidine-2-carbonyl]piperazin-1-yl]-1,3,4,6,11,11a-hexahydropyrazino[1,2-b]isoquinolin-2-yl]quinoline-8-carbonitrile]
5.8 nM	–	C[C@@H]1CN(c2ccc(C#N)c3ncccc23)C[C@@H]2Cc3cc(OCCN(C)C)ccc3CN21 [Example 11, 5-[(4R,11aS)-9-[2-(dimethylamino)ethoxy]-4-methyl-1,3,4,6,11,11a-hexahydropyrazino[1,2-b]isoquinolin-2-yl]quinoline-8-carbonitrile]
53.1 nM	–	C[C@@H]1CN(c2ccc(C#N)c3ncccc23)C[C@@H]2Cc3cc(N4CC5CNCCC5C4=O)ccc3CN21 (stereo partly drawn) [Example 19, 5-[(4R,11aS)-4-methyl-9-(1-oxo-3a,4,5,6,7,7a-hexahydro-3H-pyrrolo[3,4-c]pyridin-2-yl)-1,3,4,6,11,11a-hexahydropyrazino[1,2-b]isoquinolin-2-yl]quinoline-8-carbonitrile]
38.2 nM	–	C[C@@H]1CN(c2ccc(C#N)c3ncccc23)C[C@@H]2Cc3ccc(OCCN(C)C)cc3CN21 [Example 5, 5-[(4R,11aS)-8-[2-(dimethylamino)ethoxy]-4-methyl-1,3,4,6,11,11a-hexahydropyrazino[1,2-b]isoquinolin-2-yl]quinoline-8-carbonitrile]
71.6 nM	–	C[C@@H]1CN(c2ccc(C#N)c3ncccc23)C[C@@H]2Cc3cc(N4CC5CCNCC5C4=O)ccc3CN21 (stereo partly drawn) [Example 18, 5-[(4R,11aS)-4-methyl-9-(3-oxo-3a,4,5,6,7,7a-hexahydro-1H-pyrrolo[3,4-c]pyridin-2-yl)-1,3,4,6,11,11a-hexahydropyrazino[1,2-b]isoquinolin-2-yl]quinoline-8-carbonitrile]
10.3 nM	–	C[C@@H]1CN(c2ccc(C#N)c3ncccc23)C[C@@H]2Cc3cc(N4C[C@@H]5CNCCN5C4=O)ccc3CN21 (single isomer, unassigned) [Example 17A]
71.6 nM	–	C[C@@H]1CN(c2ccc(C#N)c3ncccc23)C[C@@H]2Cc3ccc(N4CCOCC(N)C4)cc3CN21 (stereo partly drawn) [Example 1, 5-[(4R,11aS)-8-(6-amino-1,4-oxazepan-4-yl)-4-methyl-1,3,4,6,11,11a-hexahydropyrazino[1,2-b]isoquinolin-2-yl]quinoline-8-carbonitrile]
2.9 nM	6.8 mL/min/kg	C[C@@H]1CN(c2ccc(C#N)c3ncccc23)C[C@@H]2Cc3cc(N4CC(N)CC4=O)ccc3CN21 (stereo partly drawn) [Example 16, 5-[(4R,11aS)-9-(4-amino-2-oxo-pyrrolidin-1-yl)-4-methyl-1,3,4,6,11,11a-hexahydropyrazino[1,2-b]isoquinolin-2-yl]quinoline-8-carbonitrile]
18.2 nM	–	C[C@@H]1CN(c2ccc(C#N)c3ncccc23)C[C@@H]2Cc3cc(OC[C@@H]4CCN4)ccc3CN21 [Example 12, 5-[(4R,11aS)-9-[[(2S)-azetidin-2-yl]methoxy]-4-methyl-1,3,4,6,11,11a-hexahydropyrazino[1,2-b]isoquinolin-2-yl]quinoline-8-carbonitrile]
53.1 nM	–	C[C@@H]1CN(c2ccc(C#N)c3ncccc23)C[C@@H]2Cc3ccc(NCCN4CC[C@H](O)C4)cc3CN21 [Example 2, 5-[(4R,11aS)-8-[2-[(3S)-3-hydroxypyrrolidin-1-yl]ethylamino]-4-methyl-1,3,4,6,11,11a-hexahydropyrazino[1,2-b]isoquinolin-2-yl]quinoline-8-carbonitrile]
10.3 nM	–	C[C@@H]1CN(c2ccc(C#N)c3ncccc23)C[C@@H]2Cc3cc(N4C[C@H]5CNCCN5C4=O)ccc3CN21 (single isomer, unassigned) [Example 17B]
2.4 nM	–	C[C@@H]1CN(c2ccc(C#N)c3ncccc23)C[C@@H]2Cc3cc(N4C[C@@H]5C[C@H]4CN5C(=O)C(C)(C)N)ccc3CN21 [Example 15, 5-[(4R,11aS)-9-[(1S,4S)-5-(2-amino-2-methyl-propanoyl)-2,5-diazabicyclo[2.2.1]heptan-2-yl]-4-methyl-1,3,4,6,11,11a-hexahydropyrazino[1,2-b]isoquinolin-2-yl]quinoline-8-carbonitrile]
